From patent US11076595B2, “1-(n,n-disubstituted carbamoyl) 4-(substituted sulfonyl)triazolin-5-one derivative, 4-(n,n-disubstituted carbamoyl) 1-(substituted sulfonyl)triazolin-5-one derivative, and herbicide containing said derivative as active ingredient” (HOKKO CHEMICAL INDUSTRY CO., LTD., priority 2017, dated 2021)

Assays:
Assay type in all cases: in vivo
Echinochloa crus-galli [1] = assay: Test Example 11: herbicidal effect test by soil treatment in paddy field; details: 120 g/10a active ingredient, 14 days after treatment
Outline: (§1)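 Seeds were sown 0-1 cm deep in puddled, fertilised paddy soil in Wagner pots and kept under about 3 cm of flooding in a greenhouse. Diluted emulsifiable concentrate was added dropwise right after sowing at 120 g a.i. per 10 are. Suppression (%) came from dry weight versus untreated pots after 14 days, two replicates.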

Lindernia pyxidaria [2] = assay: as above; details: 120 g/10a active ingredient, 14 days after treatment
Outline: as §1

Monochoria vaginalis [3] = assay: as above; details: 120 g/10a active ingredient, 14 days after treatment
Outline: as §1

Scirpus juncoides [4] = assay: as above; details: 120 g/10a active ingredient, 14 days after treatment
Outline: as §1

Echinochloa crus-galli [5] = assay: Test Example 12: herbicidal effect test by treatment during growing period in paddy field; details: 120 g/10a; treatment seven days after sowing in flooded paddy pot; assessed 14 days after treatment
Outline: (§2)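 Read-out: weed suppression (%) = (1 − treated/untreated mean dry weight) × 100, scored 14 days after treatment with two replications. Pots held puddled paddy soil, 30 seeds per species sown 0–1 cm, flooded ~3 cm. Post-emergence dropwise water application at 7 days after sowing, 120 g a.i./10 are.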

Lindernia pyxidaria [6] = assay: as above; details: 120 g/10a; treatment seven days after sowing in flooded paddy pot; assessed 14 days after treatment
Outline: as §2

Monochoria vaginalis [7] = assay: as above; details: 120 g/10a; treatment seven days after sowing in flooded paddy pot; assessed 14 days after treatment
Outline: as §2

Scirpus juncoides [8] = assay: as above; details: 120 g/10a; treatment seven days after sowing in flooded paddy pot; assessed 14 days after treatment
Outline: as §2

Amaranthus viridis [9] = assay: Test Example 13: herbicidal effect test by soil treatment in upland field; details: 120 g/10a, 14 days after treatment
Outline: (§3)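 Pre-emergence soil treatment: alluvial soil pots (36 cm^2) sown with 20 seeds per weed species, sprayed one day later with water-diluted emulsifiable concentrate at 100 liter per 10 are, equal to 120 g active ingredient per 10 are. Two replicates; weed suppression (%) from dry weight versus untreated plots at 14 days.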

Chenopodium album [10] = assay: as above; details: 120 g/10a, 14 days after treatment
Outline: as §3

Echinochloa crus-galli [11] = assay: as above; details: 120 g/10a, 14 days after treatment
Outline: as §3

crabgrass [12] = assay: as above; details: 120 g/10a, 14 days after treatment
Outline: as §3

Chenopodium album [13] = assay: Test Example 14: herbicidal effect test by foliage treatment in upland field; details: 7 days after sowing, 120 g/10a, 14 days after treatment
Outline: (§4)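 Dose: 120 g a.i. per 10 are, sprayed in 100 L water per 10 are onto pots seven days post-sowing in alluvial soil. After 14 days, weed dry weight relative to untreated plots gave suppression rate (%); duplicate plots per concentration.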

crabgrass [14] = assay: as above; details: 7 days after sowing, 120 g/10a, 14 days after treatment
Outline: as §4

Amaranthus viridis [15] = assay: as above; details: 7 days after sowing, 120 g/10a, 14 days after treatment
Outline: as §4

Echinochloa crus-galli [16] = assay: as above; details: 7 days after sowing, 120 g/10a, 14 days after treatment
Outline: as §4

CC(C)N(C(=O)n1cnn(S(=O)(=O)C2CC2)c1=O)c1cccc(F)c1F [Compound 11-189]
90%: Weed suppression rate (%) Monochoria vaginalis (Monochoria vaginalis [3]) | Weed suppression rate (%) Scirpus juncoides (Scirpus juncoides [4]) | herbicidal effect, Chenopodium album (Chenopodium album [10])
60%: herbicidal effect, Amaranthus viridis (Amaranthus viridis [15])
100%: Weed suppression rate (%) Echinochloa crus-galli (Echinochloa crus-galli [1]) | Weed suppression rate (%) Lindemia pyxidaria (Lindernia pyxidaria [2]) | Weed suppression rate (%) Echinochloa crus-galli (Echinochloa crus-galli [5]) | Weed suppression rate (%) Monochoria vaginalis (Monochoria vaginalis [7]) | Weed suppression rate (%) Scirpus juncoides (Scirpus juncoides [8]) | herbicidal effect, Amaranthus viridis (Amaranthus viridis [9]) | herbicidal effect, Echinochloa crus-galli (Echinochloa crus-galli [11]) | herbicidal effect, Crabgrass (crabgrass [12]) | herbicidal effect, Crabgrass (crabgrass [14]) | herbicidal effect, Echinochloa crus-galli (Echinochloa crus-galli [16])
80%: Weed suppression rate (%) Lindemia pyxidaria (Lindernia pyxidaria [6]) | herbicidal effect, Chenopodium album (Chenopodium album [13])

CCc1ccc(S(=O)(=O)n2ncn(C(=O)N(c3ccc(F)cc3F)C(C)C)c2=O)cc1 [Compound 11-666]
100%: Weed suppression rate (%) Echinochloa crus-galli (Echinochloa crus-galli [1]) | Weed suppression rate (%) Echinochloa crus-galli (Echinochloa crus-galli [5]) | herbicidal effect, Chenopodium album (Chenopodium album [10]) | herbicidal effect, Echinochloa crus-galli (Echinochloa crus-galli [11])
40%: herbicidal effect, Amaranthus viridis (Amaranthus viridis [9]) | herbicidal effect, Chenopodium album (Chenopodium album [13]) | herbicidal effect, Amaranthus viridis (Amaranthus viridis [15])
90%: Weed suppression rate (%) Lindemia pyxidaria (Lindernia pyxidaria [2]) | Weed suppression rate (%) Monochoria vaginalis (Monochoria vaginalis [3]) | Weed suppression rate (%) Scirpus juncoides (Scirpus juncoides [4]) | Weed suppression rate (%) Lindemia pyxidaria (Lindernia pyxidaria [6]) | Weed suppression rate (%) Monochoria vaginalis (Monochoria vaginalis [7]) | Weed suppression rate (%) Scirpus juncoides (Scirpus juncoides [8]) | herbicidal effect, Crabgrass (crabgrass [12]) | herbicidal effect, Crabgrass (crabgrass [14]) | herbicidal effect, Echinochloa crus-galli (Echinochloa crus-galli [16])

CC(C)N(C(=O)n1cnn(S(=O)(=O)C2CC2)c1=O)c1ccc(F)cc1 [Compound 11-162]
90%: Weed suppression rate (%) Lindemia pyxidaria (Lindernia pyxidaria [2]) | Weed suppression rate (%) Monochoria vaginalis (Monochoria vaginalis [3]) | Weed suppression rate (%) Scirpus juncoides (Scirpus juncoides [4]) | Weed suppression rate (%) Echinochloa crus-galli (Echinochloa crus-galli [5]) | Weed suppression rate (%) Scirpus juncoides (Scirpus juncoides [8]) | herbicidal effect, Amaranthus viridis (Amaranthus viridis [9]) | herbicidal effect, Crabgrass (crabgrass [12]) | herbicidal effect, Crabgrass (crabgrass [14]) | herbicidal effect, Amaranthus viridis (Amaranthus viridis [15])
100%: Weed suppression rate (%) Echinochloa crus-galli (Echinochloa crus-galli [1])
80%: Weed suppression rate (%) Lindemia pyxidaria (Lindernia pyxidaria [6]) | Weed suppression rate (%) Monochoria vaginalis (Monochoria vaginalis [7]) | herbicidal effect, Chenopodium album (Chenopodium album [10]) | herbicidal effect, Echinochloa crus-galli (Echinochloa crus-galli [11]) | herbicidal effect, Chenopodium album (Chenopodium album [13]) | herbicidal effect, Echinochloa crus-galli (Echinochloa crus-galli [16])

CC(C)N(C(=O)n1cnn(S(=O)(=O)c2c(F)cccc2F)c1=O)c1ccccc1 [Compound 11-762]
70%: herbicidal effect, Amaranthus viridis (Amaranthus viridis [15])
80%: Weed suppression rate (%) Echinochloa crus-galli (Echinochloa crus-galli [5]) | Weed suppression rate (%) Scirpus juncoides (Scirpus juncoides [8]) | herbicidal effect, Echinochloa crus-galli (Echinochloa crus-galli [11])
60%: Weed suppression rate (%) Lindemia pyxidaria (Lindernia pyxidaria [6]) | herbicidal effect, Amaranthus viridis (Amaranthus viridis [9]) | herbicidal effect, Chenopodium album (Chenopodium album [10]) | herbicidal effect, Chenopodium album (Chenopodium album [13])
40%: Weed suppression rate (%) Scirpus juncoides (Scirpus juncoides [4])
90%: Weed suppression rate (%) Echinochloa crus-galli (Echinochloa crus-galli [1]) | Weed suppression rate (%) Lindemia pyxidaria (Lindernia pyxidaria [2]) | Weed suppression rate (%) Monochoria vaginalis (Monochoria vaginalis [3]) | Weed suppression rate (%) Monochoria vaginalis (Monochoria vaginalis [7]) | herbicidal effect, Crabgrass (crabgrass [12]) | herbicidal effect, Crabgrass (crabgrass [14]) | herbicidal effect, Echinochloa crus-galli (Echinochloa crus-galli [16])

CC(C)N(C(=O)n1cnn(S(=O)(=O)C(C)C)c1=O)c1c(F)cc(F)cc1F [Compound 11-63]
70%: herbicidal effect, Chenopodium album (Chenopodium album [13])
60%: herbicidal effect, Amaranthus viridis (Amaranthus viridis [15])
100%: Weed suppression rate (%) Echinochloa crus-galli (Echinochloa crus-galli [1]) | Weed suppression rate (%) Lindemia pyxidaria (Lindernia pyxidaria [2]) | Weed suppression rate (%) Monochoria vaginalis (Monochoria vaginalis [3]) | Weed suppression rate (%) Scirpus juncoides (Scirpus juncoides [4]) | Weed suppression rate (%) Echinochloa crus-galli (Echinochloa crus-galli [5]) | Weed suppression rate (%) Monochoria vaginalis (Monochoria vaginalis [7]) | Weed suppression rate (%) Scirpus juncoides (Scirpus juncoides [8]) | herbicidal effect, Echinochloa crus-galli (Echinochloa crus-galli [11]) | herbicidal effect, Crabgrass (crabgrass [12]) | herbicidal effect, Crabgrass (crabgrass [14]) | herbicidal effect, Echinochloa crus-galli (Echinochloa crus-galli [16])
90%: herbicidal effect, Amaranthus viridis (Amaranthus viridis [9]) | herbicidal effect, Chenopodium album (Chenopodium album [10])
80%: Weed suppression rate (%) Lindemia pyxidaria (Lindernia pyxidaria [6])

CC(C)N(C(=O)n1cnn(S(=O)(=O)C2CCCCC2)c1=O)c1ccc(F)cc1Cl [Compound 11-301]
80%: Weed suppression rate (%) Lindemia pyxidaria (Lindernia pyxidaria [2]) | Weed suppression rate (%) Monochoria vaginalis (Monochoria vaginalis [3]) | Weed suppression rate (%) Lindemia pyxidaria (Lindernia pyxidaria [6]) | Weed suppression rate (%) Monochoria vaginalis (Monochoria vaginalis [7]) | herbicidal effect, Chenopodium album (Chenopodium album [10]) | herbicidal effect, Echinochloa crus-galli (Echinochloa crus-galli [11]) | herbicidal effect, Chenopodium album (Chenopodium album [13]) | herbicidal effect, Echinochloa crus-galli (Echinochloa crus-galli [16])
90%: Weed suppression rate (%) Echinochloa crus-galli (Echinochloa crus-galli [1]) | Weed suppression rate (%) Scirpus juncoides (Scirpus juncoides [4]) | Weed suppression rate (%) Echinochloa crus-galli (Echinochloa crus-galli [5]) | Weed suppression rate (%) Scirpus juncoides (Scirpus juncoides [8]) | herbicidal effect, Amaranthus viridis (Amaranthus viridis [9]) | herbicidal effect, Crabgrass (crabgrass [12]) | herbicidal effect, Crabgrass (crabgrass [14]) | herbicidal effect, Amaranthus viridis (Amaranthus viridis [15])

CC(C)N(C(=O)n1cnn(S(=O)(=O)N2CCCCC2)c1=O)c1ccc(F)cc1F [Compound 11-1102]
70%: Weed suppression rate (%) Lindemia pyxidaria (Lindernia pyxidaria [6])
80%: Weed suppression rate (%) Monochoria vaginalis (Monochoria vaginalis [7]) | herbicidal effect, Chenopodium album (Chenopodium album [13]) | herbicidal effect, Echinochloa crus-galli (Echinochloa crus-galli [16])
100%: Weed suppression rate (%) Echinochloa crus-galli (Echinochloa crus-galli [1]) | Weed suppression rate (%) Lindemia pyxidaria (Lindernia pyxidaria [2]) | Weed suppression rate (%) Echinochloa crus-galli (Echinochloa crus-galli [5]) | herbicidal effect, Chenopodium album (Chenopodium album [10]) | herbicidal effect, Echinochloa crus-galli (Echinochloa crus-galli [11]) | herbicidal effect, Crabgrass (crabgrass [12])
90%: Weed suppression rate (%) Monochoria vaginalis (Monochoria vaginalis [3]) | Weed suppression rate (%) Scirpus juncoides (Scirpus juncoides [4]) | Weed suppression rate (%) Scirpus juncoides (Scirpus juncoides [8]) | herbicidal effect, Amaranthus viridis (Amaranthus viridis [9]) | herbicidal effect, Crabgrass (crabgrass [14]) | herbicidal effect, Amaranthus viridis (Amaranthus viridis [15])

CCN(CC)C(=O)n1cnn(S(=O)(=O)c2ccccc2Cl)c1=O [Compound 11-500]
60%: Weed suppression rate (%) Lindemia pyxidaria (Lindernia pyxidaria [6]) | Weed suppression rate (%) Monochoria vaginalis (Monochoria vaginalis [7]) | Weed suppression rate (%) Scirpus juncoides (Scirpus juncoides [8])
0%: herbicidal effect, Amaranthus viridis (Amaranthus viridis [9]) | herbicidal effect, Chenopodium album (Chenopodium album [10])
80%: Weed suppression rate (%) Echinochloa crus-galli (Echinochloa crus-galli [5]) | herbicidal effect, Echinochloa crus-galli (Echinochloa crus-galli [11]) | herbicidal effect, Crabgrass (crabgrass [12])
90%: Weed suppression rate (%) Echinochloa crus-galli (Echinochloa crus-galli [1])
50%: Weed suppression rate (%) Lindemia pyxidaria (Lindernia pyxidaria [2]) | Weed suppression rate (%) Monochoria vaginalis (Monochoria vaginalis [3]) | Weed suppression rate (%) Scirpus juncoides (Scirpus juncoides [4]) | herbicidal effect, Chenopodium album (Chenopodium album [13])
40%: herbicidal effect, Crabgrass (crabgrass [14]) | herbicidal effect, Amaranthus viridis (Amaranthus viridis [15]) | herbicidal effect, Echinochloa crus-galli (Echinochloa crus-galli [16])

CC(C)N(C(=O)n1cnn(S(=O)(=O)C2CC2)c1=O)c1ccc(Cl)cn1 [Compound 11-233]
90%: Weed suppression rate (%) Monochoria vaginalis (Monochoria vaginalis [3]) | Weed suppression rate (%) Scirpus juncoides (Scirpus juncoides [4]) | Weed suppression rate (%) Lindemia pyxidaria (Lindernia pyxidaria [6]) | Weed suppression rate (%) Monochoria vaginalis (Monochoria vaginalis [7]) | Weed suppression rate (%) Scirpus juncoides (Scirpus juncoides [8]) | herbicidal effect, Crabgrass (crabgrass [12]) | herbicidal effect, Crabgrass (crabgrass [14]) | herbicidal effect, Echinochloa crus-galli (Echinochloa crus-galli [16])
40%: herbicidal effect, Amaranthus viridis (Amaranthus viridis [15])
100%: Weed suppression rate (%) Echinochloa crus-galli (Echinochloa crus-galli [1]) | Weed suppression rate (%) Lindemia pyxidaria (Lindernia pyxidaria [2]) | Weed suppression rate (%) Echinochloa crus-galli (Echinochloa crus-galli [5])
80%: herbicidal effect, Amaranthus viridis (Amaranthus viridis [9]) | herbicidal effect, Echinochloa crus-galli (Echinochloa crus-galli [11])
50%: herbicidal effect, Chenopodium album (Chenopodium album [10]) | herbicidal effect, Chenopodium album (Chenopodium album [13])

Cc1cc(C)c(S(=O)(=O)n2ncn(C(=O)N(c3ccc(F)cc3F)C(C)C)c2=O)c(C)c1 [Compound 11-863]
90%: Weed suppression rate (%) Echinochloa crus-galli (Echinochloa crus-galli [5]) | Weed suppression rate (%) Lindemia pyxidaria (Lindernia pyxidaria [6]) | Weed suppression rate (%) Monochoria vaginalis (Monochoria vaginalis [7]) | Weed suppression rate (%) Scirpus juncoides (Scirpus juncoides [8])
60%: herbicidal effect, Echinochloa crus-galli (Echinochloa crus-galli [11]) | herbicidal effect, Crabgrass (crabgrass [14])
70%: herbicidal effect, Crabgrass (crabgrass [12]) | herbicidal effect, Chenopodium album (Chenopodium album [13]) | herbicidal effect, Echinochloa crus-galli (Echinochloa crus-galli [16])
50%: herbicidal effect, Amaranthus viridis (Amaranthus viridis [9]) | herbicidal effect, Chenopodium album (Chenopodium album [10]) | herbicidal effect, Amaranthus viridis (Amaranthus viridis [15])
100%: Weed suppression rate (%) Echinochloa crus-galli (Echinochloa crus-galli [1]) | Weed suppression rate (%) Lindemia pyxidaria (Lindernia pyxidaria [2]) | Weed suppression rate (%) Monochoria vaginalis (Monochoria vaginalis [3]) | Weed suppression rate (%) Scirpus juncoides (Scirpus juncoides [4])
